In the NIST ThermoML archive (doi:10.1016/j.fluid.2014.04.018):
Values joined by “and” are separate entries in the source; they are usually repeats but may differ in a detail not shown here. Equal entries are not always repeated.

Conditions: Liquid, Vibrating tube method

CCCOC(=O)CCCCC(=O)OCCC [dipropyl hexanedioate]
Conditions	mass density
293.15 K, 100 kPa	979.3 kg/m3
293.15 K, 520 kPa	979.7 kg/m3
293.15 K, 1040 kPa	980 kg/m3
293.15 K, 2530 kPa	981 kg/m3
293.15 K, 5020 kPa	982.5 kg/m3
293.15 K, 7510 kPa	984.1 kg/m3
293.15 K, 7530 kPa	984.2 kg/m3
293.15 K, 10010 kPa	985.7 kg/m3
293.15 K, 15050 kPa	988.9 kg/m3
293.15 K, 20010 kPa	991.8 kg/m3
293.15 K, 30030 kPa	997.7 kg/m3
293.15 K, 39800 kPa	1003.1 kg/m3
293.15 K, 50070 kPa	1008.4 kg/m3
293.15 K, 65000 kPa	1015.7 kg/m3
303.15 K, 100 kPa	970.4 kg/m3 and 970.3 kg/m3
303.15 K, 500 kPa	970.7 kg/m3
303.15 K, 510 kPa	970.7 kg/m3
303.15 K, 1010 kPa	971.1 kg/m3
303.15 K, 2510 kPa	972.1 kg/m3
303.15 K, 5000 kPa	973.8 kg/m3
303.15 K, 5030 kPa	973.8 kg/m3
303.15 K, 7510 kPa	975.5 kg/m3
303.15 K, 10010 kPa	977.1 kg/m3
303.15 K, 10020 kPa	977.1 kg/m3
303.15 K, 15010 kPa	980.4 kg/m3
303.15 K, 20000 kPa	983.5 kg/m3
303.15 K, 30000 kPa	989.6 kg/m3
303.15 K, 30010 kPa	989.6 kg/m3
303.15 K, 39800 kPa	995.2 kg/m3
303.15 K, 50010 kPa	1000.7 kg/m3
303.15 K, 64990 kPa	1008.3 kg/m3
303.15 K, 65010 kPa	1008.3 kg/m3
313.15 K, 100 kPa	961.5 kg/m3
313.15 K, 500 kPa	961.8 kg/m3
313.15 K, 1010 kPa	962.2 kg/m3
313.15 K, 2510 kPa	963.3 kg/m3
313.15 K, 5040 kPa	965.1 kg/m3
313.15 K, 7510 kPa	966.8 kg/m3
313.15 K, 10010 kPa	968.5 kg/m3
313.15 K, 15000 kPa	971.9 kg/m3
313.15 K, 19980 kPa	975.2 kg/m3
313.15 K, 30000 kPa	981.6 kg/m3
313.15 K, 39800 kPa	987.4 kg/m3
313.15 K, 39810 kPa	987.4 kg/m3
313.15 K, 50060 kPa	993.2 kg/m3
313.15 K, 65000 kPa	1001 kg/m3
323.15 K, 100 kPa	952.4 kg/m3
323.15 K, 500 kPa	952.8 kg/m3
323.15 K, 1010 kPa	953.2 kg/m3
323.15 K, 2530 kPa	954.3 kg/m3
323.15 K, 5020 kPa	956.2 kg/m3
323.15 K, 7510 kPa	958 kg/m3
323.15 K, 7550 kPa	958.1 kg/m3
323.15 K, 10000 kPa	959.9 kg/m3
323.15 K, 15030 kPa	963.4 kg/m3
323.15 K, 20010 kPa	966.9 kg/m3
323.15 K, 30010 kPa	973.5 kg/m3
323.15 K, 39820 kPa	979.5 kg/m3
323.15 K, 50020 kPa	985.5 kg/m3
323.15 K, 64990 kPa	993.7 kg/m3
333.15 K, 100 kPa	943.5 kg/m3
333.15 K, 500 kPa	943.9 kg/m3
333.15 K, 1020 kPa	944.3 kg/m3
333.15 K, 2520 kPa	945.5 kg/m3
333.15 K, 5010 kPa	947.5 kg/m3
333.15 K, 7510 kPa	949.4 kg/m3
333.15 K, 10000 kPa	951.3 kg/m3
333.15 K, 15000 kPa	955.1 kg/m3
333.15 K, 20000 kPa	958.7 kg/m3
333.15 K, 30020 kPa	965.6 kg/m3
333.15 K, 39790 kPa	971.9 kg/m3
333.15 K, 50050 kPa	978.1 kg/m3
333.15 K, 65000 kPa	986.5 kg/m3
343.15 K, 100 kPa	934.6 kg/m3
343.15 K, 520 kPa	935 kg/m3
343.15 K, 1040 kPa	935.5 kg/m3
343.15 K, 2540 kPa	936.7 kg/m3
343.15 K, 5020 kPa	938.8 kg/m3
343.15 K, 7510 kPa	940.8 kg/m3
343.15 K, 7520 kPa	940.8 kg/m3
343.15 K, 10020 kPa	942.8 kg/m3
343.15 K, 15000 kPa	946.7 kg/m3
343.15 K, 20030 kPa	950.6 kg/m3
343.15 K, 29580 kPa	957.4 kg/m3
343.15 K, 39860 kPa	964.3 kg/m3
343.15 K, 50020 kPa	970.7 kg/m3
343.15 K, 65000 kPa	979.4 kg/m3
353.15 K, 100 kPa	925.7 kg/m3
353.15 K, 510 kPa	926.1 kg/m3
353.15 K, 1020 kPa	926.5 kg/m3
353.15 K, 2530 kPa	927.9 kg/m3
353.15 K, 5020 kPa	930.1 kg/m3
353.15 K, 7510 kPa	932.2 kg/m3
353.15 K, 7530 kPa	932.2 kg/m3
353.15 K, 10000 kPa	934.3 kg/m3
353.15 K, 14550 kPa	938 kg/m3
353.15 K, 20020 kPa	942.3 kg/m3
353.15 K, 30010 kPa	949.8 kg/m3
353.15 K, 39800 kPa	956.7 kg/m3
353.15 K, 49990 kPa	963.4 kg/m3
353.15 K, 64990 kPa	972.4 kg/m3
363.15 K, 100 kPa	916.7 kg/m3
363.15 K, 500 kPa	917.2 kg/m3
363.15 K, 980 kPa	917.6 kg/m3
363.15 K, 2520 kPa	919.1 kg/m3
363.15 K, 5000 kPa	921.3 kg/m3
363.15 K, 7480 kPa	923.6 kg/m3
363.15 K, 10020 kPa	925.8 kg/m3
363.15 K, 15020 kPa	930.1 kg/m3
363.15 K, 20020 kPa	934.2 kg/m3
363.15 K, 30020 kPa	942 kg/m3
363.15 K, 39810 kPa	949.1 kg/m3
363.15 K, 50050 kPa	956.1 kg/m3
363.15 K, 64970 kPa	965.4 kg/m3
